From patent publication US20260159497A1, “SOLID FORMS OF A COMPLEMENT FACTOR B INHIBITOR” (Novartis Pharma AG, priority 2022, published 2026)

Experiment: Dynamic vapor sorption (DVS) mass change
Format: physicochemical
Details: for Mass change by DVS, Desorption (%) / Mass change by DVS, Sorption (%): Table 5, 25 degree C., based on dry weight; for Mass change by DVS, 1st Desorption (%) / Mass change by DVS, 1st Sorption (%) / Mass change by DVS, 2nd Desorption (%) / Mass change by DVS, 2nd Sorption (%): Table 6
Text: [table] The mass change by DVS isotherm (2 cycles 40-0-95-0-40% RH) are in the tables below. The mass change is based on the dry weight of each.

With `COc1cc(C)c2[nH]ccc2c1CN1CCC2(C[C@H]1c1ccc(C(=O)O)cc1)CC(F)(F)C2.Cc1ccc(S(=O)(=O)O)cc1` [Form B, (S)-4-(2,2-difluoro-7-((5-methoxy-7-methyl-1H-indol-4-yl)methyl)-7-azaspiro[3.5]nonan-6-yl)benzoic acid p-toluene sulfonate] the “water sorption and desorption behavior” value was “reversible water sorption and desorption behavior with no hysteresis”, the “maximum water uptake in DVS” value (95% RH at 25° C.) was 2.67% and the “moisture absorbed by DVS (absorbs up to)” value (95% RH at 25° C.) was “up to 2.7%”. The “Mass change by DVS, Desorption (%)” value (0% RH) was 0.00%, the “Mass change by DVS, Sorption (%)” value (0% RH) was 0.00% and the “Mass change by DVS, Desorption (%)” value (10% RH) was 1.11%. The “Mass change by DVS, Sorption (%)” value (10% RH) was 1.08%, the “Mass change by DVS, Desorption (%)” value (20% RH) was 1.66% and the “Mass change by DVS, Sorption (%)” value (20% RH) was 1.64%. The “Mass change by DVS, Desorption (%)” value (30% RH) was 1.93%, the “Mass change by DVS, Sorption (%)” value (30% RH) was 1.92% and the “Mass change by DVS, Desorption (%)” value (40% RH) was 2.10%. For the same molecule, the “Mass change by DVS, Sorption (%)” value (40% RH) was 2.09%, the “Mass change by DVS, Desorption (%)” value (50% RH) was 2.22% and the “Mass change by DVS, Sorption (%)” value (50% RH) was 2.21%. For the same molecule, the “Mass change by DVS, Desorption (%)” value (60% RH) was 2.32%, the “Mass change by DVS, Sorption (%)” value (60% RH) was 2.31% and the “Mass change by DVS, Desorption (%)” value (70% RH) was 2.39%. For the same molecule, the “Mass change by DVS, Sorption (%)” value (70% RH) was 2.38%, the “Mass change by DVS, Desorption (%)” value (80% RH) was 2.46% and the “Mass change by DVS, Sorption (%)” value (80% RH) was 2.45%. The “Mass change by DVS, Desorption (%)” value (90% RH) was 2.54%, the “Mass change by DVS, Sorption (%)” value (90% RH) was 2.54% and the “Mass change by DVS, Desorption (%)” value (95% RH) was 2.62%. The “Mass change by DVS, Sorption (%)” value (95% RH) was 2.62%, the “Mass change by DVS, 1st Desorption (%)” value (DVS at 25 degree C., 0% RH) was 0.00% and the “Mass change by DVS, 1st Sorption (%)” value (DVS at 25 degree C., 0% RH) was 0.00%. For the same molecule, the “Mass change by DVS, 2nd Desorption (%)” value (DVS at 25 degree C., 0% RH) was −0.01%, the “Mass change by DVS, 2nd Sorption (%)” value (DVS at 25 degree C., 0% RH) was −0.01% and the “Mass change by DVS, 1st Desorption (%)” value (DVS at 25 degree C., 10% RH) was 1.13%. The “Mass change by DVS, 1st Sorption (%)” value (DVS at 25 degree C., 10% RH) was 1.11%, the “Mass change by DVS, 2nd Desorption (%)” value (DVS at 25 degree C., 10% RH) was 1.13% and the “Mass change by DVS, 2nd Sorption (%)” value (DVS at 25 degree C., 10% RH) was 1.11%. For the same molecule, the “Mass change by DVS, 1st Desorption (%)” value (DVS at 25 degree C., 20% RH) was 1.70%, the “Mass change by DVS, 1st Sorption (%)” value (DVS at 25 degree C., 20% RH) was 1.69% and the “Mass change by DVS, 2nd Desorption (%)” value (DVS at 25 degree C., 20% RH) was 1.70%. For the same molecule, the “Mass change by DVS, 2nd Sorption (%)” value (DVS at 25 degree C., 20% RH) was 1.68%, the “Mass change by DVS, 1st Desorption (%)” value (DVS at 25 degree C., 30% RH) was 1.98% and the “Mass change by DVS, 1st Sorption (%)” value (DVS at 25 degree C., 30% RH) was 1.97%. The “Mass change by DVS, 2nd Desorption (%)” value (DVS at 25 degree C., 30% RH) was 1.98%, the “Mass change by DVS, 2nd Sorption (%)” value (DVS at 25 degree C., 30% RH) was 1.97% and the “Mass change by DVS, 1st Desorption (%)” value (DVS at 25 degree C., 40% RH) was 2.16%. For the same molecule, the “Mass change by DVS, 1st Sorption (%)” value (DVS at 25 degree C., 40% RH) was 2.15%, the “Mass change by DVS, 2nd Desorption (%)” value (DVS at 25 degree C., 40% RH) was 2.16% and the “Mass change by DVS, 2nd Sorption (%)” value (DVS at 25 degree C., 40% RH) was 2.15%. For the same molecule, the “Mass change by DVS, 1st Sorption (%)” value (DVS at 25 degree C., 50% RH) was 2.28%, the “Mass change by DVS, 2nd Desorption (%)” value (DVS at 25 degree C., 50% RH) was 2.29% and the “Mass change by DVS, 1st Sorption (%)” value (DVS at 25 degree C., 60% RH) was 2.37%. The “Mass change by DVS, 2nd Desorption (%)” value (DVS at 25 degree C., 60% RH) was 2.38%, the “Mass change by DVS, 1st Sorption (%)” value (DVS at 25 degree C., 70% RH) was 2.45% and the “Mass change by DVS, 2nd Desorption (%)” value (DVS at 25 degree C., 70% RH) was 2.47%. For the same molecule, the “Mass change by DVS, 1st Sorption (%)” value (DVS at 25 degree C., 80% RH) was 2.53%, the “Mass change by DVS, 2nd Desorption (%)” value (DVS at 25 degree C., 80% RH) was 2.54% and the “Mass change by DVS, 1st Sorption (%)” value (DVS at 25 degree C., 90% RH) was 2.60%. The “Mass change by DVS, 2nd Desorption (%)” value (DVS at 25 degree C., 90% RH) was 2.61%, the “Mass change by DVS, 1st Sorption (%)” value (DVS at 25 degree C., 95% RH) was 2.67% and the “Mass change by DVS, 2nd Desorption (%)” value (DVS at 25 degree C., 95% RH) was 2.67%. The “Mass change by DVS, 1st Desorption (%)” value (DVS at 40 degree C., 0% RH) was 0.00%, the “Mass change by DVS, 1st Sorption (%)” value (DVS at 40 degree C., 0% RH) was 0.00% and the “Mass change by DVS, 2nd Desorption (%)” value (DVS at 40 degree C., 0% RH) was −0.01%. The “Mass change by DVS, 2nd Sorption (%)” value (DVS at 40 degree C., 0% RH) was −0.01%, the “Mass change by DVS, 1st Desorption (%)” value (DVS at 40 degree C., 10% RH) was 0.97% and the “Mass change by DVS, 1st Sorption (%)” value (DVS at 40 degree C., 10% RH) was 0.96%. The “Mass change by DVS, 2nd Desorption (%)” value (DVS at 40 degree C., 10% RH) was 0.97%, the “Mass change by DVS, 2nd Sorption (%)” value (DVS at 40 degree C., 10% RH) was 0.95% and the “Mass change by DVS, 1st Desorption (%)” value (DVS at 40 degree C., 20% RH) was 1.61%. The “Mass change by DVS, 1st Sorption (%)” value (DVS at 40 degree C., 20% RH) was 1.59%, the “Mass change by DVS, 2nd Desorption (%)” value (DVS at 40 degree C., 20% RH) was 1.60% and the “Mass change by DVS, 2nd Sorption (%)” value (DVS at 40 degree C., 20% RH) was 1.59%. For the same molecule, the “Mass change by DVS, 1st Desorption (%)” value (DVS at 40 degree C., 30% RH) was 1.92%.
